The values that follow are results of earlier work, collected in patent US4127528A, “Novel derivatives of alpha-endorphin, intermediates therefor and compositions and methods employing said derivatives” (priority 1977, dated 1978).

In data set [1] the test system is opiate activity.
In data set [2] the test system is brain opiate receptor sites. Particulars: natural peptide.
The test system of data set [3] is rat. The conditions noted are these: injected directly into the brain of the rat.

As for “H-Tyr-Gly-Gly-Phe-Met-OH [methionine enkephalin]”, the “activity in bioassays for opiate activity” value in data set [1] is on record as “very active”. Besides, the “binding to partially purified brain opiate receptor sites” value in data set [2] is “binds stereo-specifically”. The analgesic activity entry in data set [3] was “only weak analgesic activity of short duration”.
